The target in this test is HCV NS5B polymerase (Hepatitis C virus genotype 1b, UniProt P26663). The test can be described thus: biochemical. As to conditions: 20 nM enzyme, 0.6 μM GTP, 250 nM 5′biotinylated oligo (rG13)/poly rC, 75 min at 28° C. On the procedure:
Compounds were tested for HCV polymerase inhibition. Assays were performed in a 96-well streptavidin-coated FlashPlate using 20 nM enzyme, 0.5 μCi of [α-^33P]GTP, 0.6 μM GTP, and 250 nM 5′biotinylated oligo (rG13)/poly rC in 20 mM Tris-HCl, pH 7.5, 5 mM MgCl2, 5 mM dithiothreitol, 0.1 g/L bovine serum albumin, and 100 U/mL RNAse inhibitor. The reaction was stopped by aspiration after 75 min at 28° C. and the plate was washed several times. After washing and drying the plate, incorporated radioactivity was counted using a Microbeta scintillation counter. IC50 values were calculated relative to the uninhibited control and inhibition data were fitted to a 4-parameter IC50 equation.

The structures appear in SMILES notation. A value given as a limit tells only on which side of the number the result lay.

HCV NS5B polymerase, sequence (P26663 2420-3010): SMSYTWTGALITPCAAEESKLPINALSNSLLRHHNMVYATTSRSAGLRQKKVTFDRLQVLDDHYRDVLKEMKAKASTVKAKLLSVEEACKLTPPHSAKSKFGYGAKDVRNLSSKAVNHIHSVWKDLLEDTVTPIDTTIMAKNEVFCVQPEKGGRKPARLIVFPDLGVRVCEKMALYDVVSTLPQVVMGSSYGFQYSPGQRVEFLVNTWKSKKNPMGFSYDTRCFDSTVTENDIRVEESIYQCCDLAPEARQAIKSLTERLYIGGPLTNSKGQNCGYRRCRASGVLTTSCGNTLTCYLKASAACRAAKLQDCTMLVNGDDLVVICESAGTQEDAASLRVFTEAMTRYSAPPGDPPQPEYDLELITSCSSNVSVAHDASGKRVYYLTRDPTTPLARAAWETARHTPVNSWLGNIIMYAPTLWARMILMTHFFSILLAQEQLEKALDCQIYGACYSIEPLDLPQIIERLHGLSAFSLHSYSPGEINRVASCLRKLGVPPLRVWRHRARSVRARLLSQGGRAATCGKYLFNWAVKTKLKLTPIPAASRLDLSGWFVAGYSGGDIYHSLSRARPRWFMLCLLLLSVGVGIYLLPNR

Compound `CC1(C)CN(C2CCCC2)C(=O)C(C2=NS(=O)(=O)c3cc(NS(C)(=O)=O)ccc3N2)=C1O` [Example 18, N-[3-(1-Cyclopentyl-4-hydroxy-5,5-dimethyl-2-oxo-1,2,5,6-tetrahydro-pyridin-3-yl)-1,1-dioxo-1,4-dihydro-1λ^6-benzo[1,2,4]thiadiazin-7-yl]-methanesulfonamide] gave an IC50 of 1 to 4 µM.

With `CC(C)CCC1(COCc2ccccc2)CN(C2CCCC2)C(=O)C(C2=NS(=O)(=O)c3cc(NS(C)(=O)=O)ccc3N2)=C1O` (centres unmarked) [Example 58, N-{3-[5-Benzyloxymethyl-1-cyclopentyl-4-hydroxy-5-(3-methyl-butyl)-2-oxo-1,2,5,6-tetrahydro-pyridin-3-yl]-1,1-dioxo-1,4-dihydro-1λ^6-benzo[1,2,4]thiadiazin-7-yl}-methanesulfonamide], the IC50 lay in the range of 1 to 4 µM.

Regarding `CC(C)(C)CCN1CC(C)(C2CCCC2)C(O)=C(C2=NS(=O)(=O)c3cc(NS(C)(=O)=O)ccc3N2)C1=O` (centres unmarked) [Example 30, N-{3-[5-Cyclopentyl-1-(3,3-dimethyl-butyl)-4-hydroxy-5-methyl-2-oxo-1,2,5,6-tetrahydro-pyridin-3-yl]-1,1-dioxo-1,4-dihydro-1λ^6-benzo[1,2,4]thiadiazin-7-yl}-methanesulfonamide], the IC50 was < 0.1 µM.

Take `CC(C)CCN1C(=O)C(C2=NS(=O)(=O)c3cc(NS(C)(=O)=O)ccc3N2)=C(O)C[C@@H]1c1ccccc1` [Example 49, N-{3-[4-Hydroxy-1-(3-methyl-butyl)-2-oxo-6(R)-phenyl-1,2,5,6-tetrahydro-pyridin-3-yl]-1,1-dioxo-1,4-dihydro-1λ^6-benzo[1,2,4]thiadiazin-7-yl}-methanesulfonamide]: the IC50 was in the range of 0.1 to 1 µM.

The compound `CC(C)CCC1CC(O)=C(C2=NS(=O)(=O)c3cc(NS(C)(=O)=O)ccc3N2)C(=O)N1C1CCCC1` (centres unmarked) [Example 53, N-{3-[1-Cyclopentyl-4-hydroxy-6-(3-methyl-butyl)-2-oxo-1,2,5,6-tetrahydro-pyridin-3-yl]-1,1-dioxo-1,4-dihydro-1λ^6-benzo[1,2,4]thiadiazin-7-yl}-methanesulfonamide] gave an IC50 of 1 to 4 µM.

Take `CC(C)CCC1(C)C(O)=C(C2=NS(=O)(=O)c3cc(NS(C)(=O)=O)ccc3N2)C(=O)N2CCCC21` (centres unmarked) [Example 5, N-{3-[7-Hydroxy-8-methyl-8-(3-methyl-butyl)-5-oxo-1,2,3,5,8,8a-hexahydro-indolizin-6-yl]-1,1-dioxo-1,4-dihydro-1λ6-benzo[1,2,4]thiadiazin-7-yl}-methanesulfonamide]: the IC50 is < 0.1 µM.

`CC(C)CCC1(CO)CN(C2CCCC2)C(=O)C(C2=NS(=O)(=O)c3cc(NS(C)(=O)=O)ccc3N2)=C1O` (centres unmarked) [Example 54, N-{3-[1-Cyclopentyl-4-hydroxy-5-hydroxymethyl-5-(3-methyl-butyl)-2-oxo-1,2,5,6-tetrahydro-pyridin-3-yl]-1,1-dioxo-1,4-dihydro-1λ^6-benzo[1,2,4]thiadiazin-7-yl}-methanesulfonamide]: the IC50 is < 0.1 µM.

`CC#CCC1(C)CN(C2CCCC2)C(=O)C(C2=NS(=O)(=O)c3cc(NS(C)(=O)=O)ccc3N2)=C1O` (centres unmarked) [Example 26, N-[3-(5-But-2-ynyl-1-cyclopentyl-4-hydroxy-5-methyl-2-oxo-1,2,5,6-tetrahydro-pyridin-3-yl)-1,1-dioxo-1,4-dihydro-1λ^6-benzo[1,2,4]thiadiazin-7-yl]-methanesulfonamide]: the IC50 fell in the range of 0.1 to 1 µM.

Consider `CC(C)CCC1(C)CN(N2CCCC2)C(=O)C(C2=NS(=O)(=O)c3cc(NS(C)(=O)=O)ccc3N2)=C1O` (centres unmarked) [Example 7, N-{3-[4-Hydroxy-5-methyl-5-(3-methyl-butyl)-2-oxo-1-pyrrolidin-1-yl-1,2,5,6-tetrahydro-pyridin-3-yl]-1,1-dioxo-1,4-dihydro-1λ^6-benzo[1,2,4]thiadiazin-7-yl}-methanesulfonamide], for which the IC50 was < 0.1 µM.

`CC(C)[C@H]1CC(O)=C(C2=NS(=O)(=O)c3cc(NS(C)(=O)=O)ccc3N2)C(=O)N1Cc1ccc(F)c(Cl)c1` [Example 55, N-{3-[1-(3-Chloro-4-fluoro-benzyl)-4-hydroxy-6(R)-isopropyl-2-oxo-1,2,5,6-tetrahydro-pyridin-3-yl]-1,1-dioxo-1,4-dihydro-1λ^6-benzo[1,2,4]thiadiazin-7-yl}-methanesulfonamide]: the IC50 was < 0.1 µM.

Take `CC(C)=CCC1CN(C2CCCC2)C(=O)C(C2=NS(=O)(=O)c3cc(NS(C)(=O)=O)ccc3N2)=C1O` (centres unmarked) [Example 22, N-{3-[1-Cyclopentyl-4-hydroxy-5-(3-methyl-but-2-enyl)-2-oxo-1,2,5,6-tetrahydro-pyridin-3-yl]-1,1-dioxo-1,4-dihydro-1λ^6-benzo[1,2,4]thiadiazin-7-yl}-methanesulfonamide]: the IC50 was < 0.1 µM.

`CC1(c2ccccc2)CN(C2CCC2)C(=O)C(C2=NS(=O)(=O)c3cc(NS(C)(=O)=O)ccc3N2)=C1O` (centres unmarked) [Example 32, N-[3-(1-Cyclobutyl-4-hydroxy-5-methyl-2-oxo-5-phenyl-1,2,5,6-tetrahydro-pyridin-3-yl)-1,1-dioxo-1,4-dihydro-1λ^6-benzo[1,2,4]thiadiazin-7-yl]-methanesulfonamide] returned an IC50 of 1 to 4 µM.

As to `CC(C)CCN1CC(C)(C)C(O)=C(C2=NS(=O)(=O)c3cc(NS(C)(=O)=O)ccc3N2)C1=O` [Example 11, N-{3-[4-Hydroxy-5,5-dimethyl-1-(3-methyl-butyl)-2-oxo-1,2,5,6-tetrahydro-pyridin-3-yl]-1,1-dioxo-1,4-dihydro-1λ^6-benzo[1,2,4]thiadiazin-7-yl}-methanesulfonamide], the IC50 was 0.1 to 1 µM.

`CC(C)CC1CC(O)=C(C2=NS(=O)(=O)c3cc(NS(C)(=O)=O)ccc3N2)C(=O)N1C1CCCC1` (centres unmarked) [Example 56, N-[3-(1-Cyclopentyl-4-hydroxy-6-isobutyl-2-oxo-1,2,5,6-tetrahydro-pyridin-3-yl)-1,1-dioxo-1,4-dihydro-1λ^6-benzo[1,2,4]thiadiazin-7-yl]-methanesulfonamide] registered an IC50 of 1 to 4 µM.
